From patent publication US11028051B2, “Tetrahydroquinoline-based bromodomain inhibitors” (St. Jude Children's Research Hospital, priority 2016, dated 2021)

Experiments:
Experiment in all cases: competitive TR-FRET assay, BET-BD with acetylated peptide ligand
Type in all cases: binding
BRD3-BD1 = BRD3-BD1 (Homo sapiens (Human), UniProt Q15059); conditions: BRD3-BD1; Table 11 additional modifications; read-out: 3.1 EC50
Method: (§1) Inhibitor potency was determined using a competitive TR-FRET assay as detailed herein, measuring interaction of the respective BET-BD with an acetylated peptide ligand (Table 2).

BRDT = BRDT (Homo sapiens, UniProt Q58F21); conditions: BRDT; Table 11 additional modifications; read-out: BRDT EC50
Method: as §1

BRD2-BD1 = BRD2-BD1 (Homo sapiens (Human), UniProt P25440); conditions: BRD2-BD1; Table 11 additional modifications; read-out: 2.1 EC50
BRD2-BD1, sequence (P25440 74-180): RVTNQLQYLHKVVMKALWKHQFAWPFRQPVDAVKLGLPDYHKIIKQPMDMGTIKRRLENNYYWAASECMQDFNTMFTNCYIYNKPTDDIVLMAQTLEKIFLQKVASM
Method: as §1

BRD4-BD1 = BRD4-BD1 (Homo sapiens (Human), UniProt O60885); conditions: BRD4-BD1; Table 11 additional modifications; read-out: 4.1 EC50
Method: as §1

BRD2-BD2 = BRD2-BD2 (Homo sapiens (Human), UniProt P25440); conditions: for EC50: BRD2-BD2, Table 11 additional modifications, read-out: 2.2 EC50; for 2.1/2.2: ratio of BRD2-BD1 EC50 to BRD2-BD2 EC50 (selectivity)
BRD2-BD2, sequence (P25440 344-453): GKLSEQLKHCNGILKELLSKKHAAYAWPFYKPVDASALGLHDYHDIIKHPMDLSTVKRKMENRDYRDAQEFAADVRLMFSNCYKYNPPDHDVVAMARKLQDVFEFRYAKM
Method: as §1

BRD3-BD1, sequence (Q15059 34-140): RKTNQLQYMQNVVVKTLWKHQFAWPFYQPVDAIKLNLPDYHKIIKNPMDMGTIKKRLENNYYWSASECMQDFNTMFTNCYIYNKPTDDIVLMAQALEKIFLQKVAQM

EC50 (BRD3-BD1) | EC50 (BRDT) | EC50 (BRD2-BD1) | EC50 (BRD4-BD1) | EC50 (BRD2-BD2) | 2.1/2.2 (BRD2-BD2) | Structure (SMILES)
> 30 µM | > 30 µM | > 30 µM | > 30 µM |  |  | COc1cc(F)ccc1N[C@@H]1C[C@H](C)N(C(C)=O)c2ccc(-c3cccc(CNCC(F)(F)F)c3)cc21 [compound 169]
0.23 µM | 1.6 µM | 1.3 µM | 1.1 µM | 0.12 µM | 14 | CC(=O)N1c2ccc(-c3cccc(NC(=O)Cc4ccccc4)c3)cc2[C@H](NC(=O)OC(C)C)C[C@@H]1C [compound 110]
8.5 µM | 13 µM | 10 µM | 16 µM | 0.75 µM | 30 | CC(=O)Nc1cccc(-c2ccc3c(c2)[C@H](Nc2ccc(C(=O)OC(C)(C)C)cc2)C[C@H](C)N3C(C)=O)c1 [compound 176]
0.09 µM | 0.33 µM | 0.37 µM | 0.16 µM | 0.04 µM | 7.2 | CCC(=O)Nc1cccc(-c2ccc3c(c2)[C@H](NC(=O)OC(C)C)C[C@H](C)N3C(C)=O)c1 [compound 115]
0.13 µM | 0.14 µM | 0.08 µM | 2.5 µM | 0.012 µM | 6.7 | CC(=O)Nc1cccc(-c2ccc3c(c2)[C@H](Nc2ccc(-c4nnc(C)o4)cc2)C[C@H](C)N3C(C)=O)c1 [compound 35]
0.51 µM | 0.89 µM | 0.41 µM | 5.1 µM | 0.02 µM | 21 | CC(=O)Nc1cccc(-c2ccc3c(c2)[C@H](Nc2ccc(-c4nnco4)cc2)C[C@H](C)N3C(C)=O)c1 [compound 34]
23 µM | > 53 µM | > 53 µM | 31 µM | 0.44 µM | 140 | CC(=O)N1c2ccc(-c3cc[nH]n3)cc2[C@H](Nc2ccccc2OC(F)(F)F)C[C@@H]1C [compound 171]
0.83 µM | 6.2 µM | 2.6 µM | 1.9 µM | 0.79 µM | 11 | CC(=O)N1c2ccc(-c3cccc(NCC(C)C)c3)cc2[C@H](NC(=O)OC(C)C)C[C@@H]1C [compound 96]
0.89 µM | 4.8 µM | 3.7 µM | 3.5 µM | 2.8 µM | 13 | CC(=O)N1c2ccc(-c3cccc(NCc4ccc(C)cc4)c3)cc2[C@H](NC(=O)OC(C)C)C[C@@H]1C [compound 103]
0.65 µM | 3.9 µM | 1.9 µM | 1.8 µM | 0.52 µM | 0.091 | CCCNc1cccc(-c2ccc3c(c2)[C@H](NC(=O)OC(C)C)C[C@H](C)N3C(C)=O)c1 [compound 111]
> 30 µM | 0.76 µM | 0.87 µM | > 30 µM | 0.044 µM | 20 | COC(=O)c1ccc(N[C@@H]2C[C@H](C)N(C(C)=O)c3ccc(-c4cccc(NC(C)=O)c4)cc32)c(OC)c1 [compound 161]
0.26 µM | 0.3 µM | 0.46 µM | 1.2 µM | 0.008 µM | 58 | CC(=O)Nc1cccc(-c2ccc3c(c2)[C@H](Nc2ccc(C#N)cc2)C[C@H](C)N3C(C)=O)c1 [compound 29]
0.43 µM | 84 µM | 2 µM | 1.4 µM | 0.17 µM | 1.2 | CC(=O)N1c2ccc(-c3cccc(NC(=O)C4CC4)c3)cc2[C@H](NC(=O)OC(C)C)C[C@@H]1C [compound 94]
30 µM | 32 µM | 22 µM | 57 µM | 0.22 µM | 100 | CCCCOc1cccc(-c2ccc3c(c2)[C@H](Nc2ccc(C(=O)OC)cc2)C[C@H](C)N3C(C)=O)c1 [compound 164]
2.1 µM | 4.4 µM | 7.2 µM | 5 µM | 2.5 µM | 3.6 | CC(=O)N1c2ccc(-c3cccc(NCC4CCCCC4)c3)cc2[C@H](NC(=O)OC(C)C)C[C@@H]1C [compound 112]
14 µM | 4.9 µM | 3.1 µM | > 26 µM | 0.14 µM | 6.5 | COc1cc(F)ccc1N[C@@H]1C[C@H](C)N(C(C)=O)c2ccc(-c3cc[nH]n3)cc21 [compound 170]
0.078 µM | > 36 µM | 0.47 µM | 1.1 µM | 0.023 µM | 20 | CC(=O)Nc1cccc(-c2ccc3c(c2)[C@H](Nc2ccc(CN)cc2)C[C@H](C)N3C(C)=O)c1 [compound 26]
0.12 µM | 52 µM | 0.79 µM | 0.47 µM | 0.05 µM | 9.1 | CCCCNc1cccc(-c2ccc3c(c2)[C@H](NC(=O)OC(C)C)C[C@H](C)N3C(C)=O)c1 [compound 114]

EC50 (BRD3-BD1) | EC50 (BRDT) | EC50 (BRD2-BD1) | EC50 (BRD4-BD1) | EC50 (BRD2-BD2) | 2.1/2.2 (BRD2-BD2) | Structure (SMILES)
0.34 µM | 1.3 µM | 1.1 µM | 0.95 µM | 0.11 µM | 3.3 | CCCC(=O)Nc1cccc(-c2ccc3c(c2)[C@H](NC(=O)OC(C)C)C[C@H](C)N3C(C)=O)c1 [compound 101]
0.24 µM | 1.2 µM | 1.5 µM | 0.9 µM | 0.12 µM | 15 | CC(=O)N1c2ccc(-c3cccc(NC(=O)C(C)C)c3)cc2[C@H](NC(=O)OC(C)C)C[C@@H]1C [compound 98]
0.69 µM | 40 µM | 3.8 µM | 6 µM | 40 µM | 7.3 | CC(=O)N1c2ccc(-c3cccc(NCCC(C)C)c3)cc2[C@H](NC(=O)OC(C)C)C[C@@H]1C [compound 100]
0.25 µM | 0.73 µM | 0.94 µM | 1 µM | 0.12 µM | 12 | CC(=O)N1c2ccc(-c3cccc(NC(=O)C4CCCCC4)c3)cc2[C@H](NC(=O)OC(C)C)C[C@@H]1C [compound 99]
0.23 µM | 1.2 µM | 0.6 µM | 0.52 µM | 0.1 µM | 39 | CC(=O)N1c2ccc(-c3cccc(NCc4ccccc4)c3)cc2[C@H](NC(=O)OC(C)C)C[C@@H]1C [compound 117]
0.29 µM | 1.2 µM | 0.88 µM | 0.59 µM | 0.02 µM | 44 | CC(=O)Nc1cccc(-c2ccc3c(c2)[C@H](Nc2cccc4ncccc24)C[C@H](C)N3C(C)=O)c1 [compound 31]
> 4.9 µM | > 4.9 µM | > 4.9 µM | > 4.9 µM | 10 µM |  | CC(=O)Nc1cccc(-c2ccc3c(c2)[C@H](Nc2cccc4cccnc24)C[C@H](C)N3C(C)=O)c1 [compound 33]
> 52 µM | > 52 µM | > 52 µM | > 52 µM | 0.01 µM |  | CC(=O)Nc1cccc(-c2ccc3c(c2)[C@H](Nc2ccc(-c4nnnn4C)cc2)C[C@H](C)N3C(C)=O)c1 [compound 28]
1 µM | 3.6 µM | 1.3 µM |  | 0.14 µM | 10 | CC(=O)N(C)c1cccc(-c2ccc3c(c2)[C@H](Nc2ccc(Cl)cc2)C[C@H](C)N3C(C)=O)c1 [compound 149]
27 µM | > 84 µM | 20 µM |  | 1.8 µM | 4.6 | CC(=O)N1c2ccc(-c3cccc(NC4CCCC4)c3)cc2[C@H](Nc2ccccc2OC(F)(F)F)C[C@@H]1C [compound 154]
1.8 µM | 8.7 µM | 4.6 µM |  | 0.09 µM | 36 | C#CCCCC(=O)Nc1cccc(-c2ccc3c(c2)[C@H](Nc2ccc(C(=O)OC)cc2)C[C@H](C)N3C(C)=O)c1 [compound 138]
8.3 µM | 26 µM | 14 µM |  | 0.67 µM | 49 | CC(=O)N1c2ccc(-c3cccc(NCC4CCOC4)c3)cc2[C@H](Nc2ccccc2OC(F)(F)F)C[C@@H]1C (some centres unmarked) [compound 151]
> 78 µM | > 78 µM | 78 µM |  | 9.6 µM | 22 | CCCCN(CCCC)c1cccc(-c2ccc3c(c2)[C@H](Nc2ccccc2OC(F)(F)F)C[C@H](C)N3C(C)=O)c1 [compound 146]
21 µM | > 58 µM | 19 µM |  | 0.39 µM | 5.0 | CC(=O)N1c2ccc(-c3ccnn3C)cc2[C@H](Nc2ccccc2OC(F)(F)F)C[C@@H]1C [compound 145]
2.5 µM | 8.3 µM | 2.5 µM |  | 0.23 µM | 52 | COC(=O)c1ccc(N[C@@H]2C[C@H](C)N(C(C)=O)c3ccc(-c4cccc(NCCC(C)C)c4)cc32)cc1 [compound 142]
> 72 µM | > 72 µM | 72 µM |  | 22 µM | 13 | CCCCCN(CCCCC)c1cccc(-c2ccc3c(c2)[C@H](Nc2ccccc2OC(F)(F)F)C[C@H](C)N3C(C)=O)c1 [compound 150]
11 µM | 34 µM | 8 µM |  | 1.1 µM | 93 | CCCCN(CCCC)c1cccc(-c2ccc3c(c2)[C@H](Nc2ccc(C(=O)OC)cc2)C[C@H](C)N3C(C)=O)c1 [compound 143]
